Reference: patent publication US20230203560A1, “GLUCOSYL ESTERS FOR INFECTION SCREENING” (Board of Regents, The University of Texas System, priority 2020, published 2023)

Tests used:
leukocyte esterase (LE) [1] = assay: Electrochemical LE assay in human synovial fluid: glucose released from glucosyl ester, read on glucose test strip with potentiostat; assay type: biochemical; details: human synovial fluid spiked with LE; 5.5 mM ester
Procedure: (§1) The human leukocyte suspension in 154 mM NaCl solution (cat. No. MBS173116, 0.0867 mg mL^−1 leukocyte esterase (LE) protein, 4×10^8 WBC mL^−1) was purchased from MyBioSource (San Diego, Calif.). The suspension was diluted 10 times with a 90:10 vol. % mixture of 50 mM phosphate buffer saline (PBS, pH 7.40, 154 mM NaCl) solution and dimethylsulfoxide, left for 10 min to lyse the leukocytes chemically, sonicated for 30 s with a Q125 Qsonica probe (20% power) to further lyse them mechanically, and centrifuged at 15 000×g for 30 min. The resulting supernatant that contained LE was stored at −20° C.
The human synovial fluid (DLS0092658) was purchased from Discovery Life Sciences (Los Osos, Calif.) and stored at −70° C. when not in use. […]
The 0.15 V potential was applied to a glucose strip, which was then contacted at time t=0 s with a small drop of sample (˜10 μL) that was placed on a Petri dish (FIG. 2). […] Two charges were always determined: Q(ester) for a sample incubated with 5.5 mM ester for 5 min, and Q(no ester) for an original sample without ester. […]
The samples were incubated with each ester to release glucose in the direct proportion to the enzymatic activity of LE in a sample. The released glucose was then detected at a commercial glucose test strip. A laboratory potentiostat was used to read the glucose strip. […]

leukocyte esterase (LE) [2] = assay: Electrochemical LE assay in human urine: glucose released from glucosyl ester, read on glucose test strip with potentiostat; assay type: biochemical; details: for sample incubation time with ester to yield enough glucose to be above the detection limit of the potentiostat/glucose strip system: human urine spiked with LE, 5.5 mM ester, glucose detection limit 5 μM
Procedure: as §1
The human synovial fluid (DLS0092658) was purchased from Discovery Life Sciences (Los Osos, Calif.) and stored at −70° C. when not in use. The clean-catch midstream portion of human urine (˜15.0 mL) was collected early in the morning in a 50.0-mL sterile centrifuge tube (Fisher Scientific, Pittsburgh, Pa.) centrifuged at 600×g for 5 min, and the supernatant was stored at −20° C. The synovial fluid and urine were spiked with known amount of LE before the analysis.
Electrochemical Measurements. The glucose strip was inserted into an electronic holder (DropSens, Llanera, Spain), which was then connected to a CHE 832B potentiostat (other potentiostats could also be used). The strip was used in a 2-electrode mode with the counter and reference electrodes connected together as a single cathode and a working electrode serving as an anode (the strip's fill-detector electrode was not used). The potential applied to a working electrode was equal to 0.15 V vs. strip's reference/counter electrode.
The 0.15 V potential was applied to a glucose strip, which was then contacted at time t=0 s with a small drop of sample (˜10 μL) that was placed on a Petri dish (FIG. 2). The amperogram obtained in such a way was integrated between t=2 and t=22 s to determine the charge Q flowing through the strip. Two charges were always determined: Q(ester) for a sample incubated with 5.5 mM ester for 5 min, and Q(no ester) for an original sample without ester. The difference in charge ΔQ [=Q(ester)−Q(no ester)] was proportional to the enzymatic activity of LE in a sample.
The samples were incubated with each ester to release glucose in the direct proportion to the enzymatic activity of LE in a sample. The released glucose was then detected at a commercial glucose test strip. A laboratory potentiostat was used to read the glucose strip. The strip was inserted in an electronic holder to facilitate the measurements (FIG. 2). Such a strip-potentiostat measuring system provided a much lower limit of glucose detection (5.0 μM, S/N=3; FIG. 3A) and a linear range at least up to 100 μM glucose (FIG. 3B), which allowed for a much shorter (minutes) incubation times (FIG. 4).

Structure (SMILES) | sample incubation time with ester before reading the glucose strip (leukocyte esterase (LE) [1]) [min] | sample incubation time with ester to yield enough glucose to be above the detection limit of the potentiostat/glucose strip system (leukocyte esterase (LE) [2]) [min] | kinetics of the enzymatic reaction of LE with the ester, compared to ester α (leukocyte esterase (LE) [2]; ascribed from longer incubation time and lower calibration slope) | calibration slope (ΔQ vs LE concentration) lower than with ester α (leukocyte esterase (LE) [2]; human urine, ester γ 10 min vs ester α 5 min incubation (FIG. 8)) [%]
Cc1ccc(S(=O)(=O)N[C@@H](C)C(=O)OCCCC(=O)O[C@@H]2O[C@H](CO)[C@@H](O)[C@H](O)[C@H]2O)cc1 [ester α, (2S,3R,4S,5S,6R)-3,4,5-trihydroxy-6-(hydroxymethyl)oxan-2-yl 4-{[(2S)-2-(4-methylbenzenesulfonamido)propanoyl]oxy}butanoate] | 5 | 5 |  | 
Cc1ccc(S(=O)(=O)N[C@@H](C)C(=O)OCCNC(=O)O[C@H]2O[C@H](CO)[C@@H](O)[C@H](O)[C@H]2O)cc1 [ester γ, 2-[({[(2R,3R,4S,5S,6R)-3,4,5-trihydroxy-6-(hydroxymethyl)oxan-2-yl]oxy}carbonyl)amino]ethyl (2S)-2-(4-methylbenzenesulfonamido)propanoate] |  | 10 | slower kinetics | ~10
